Key:
[1] = target: T1, BRD4 Bromodomain 2 (BRD4 BD2) (Homo sapiens, UniProt O60885); assay: AlphaScreen binding assay, BRD4 BD2; details: His-tagged BRD4 BD2 100 nM, biotinylated H4 (1-21) K5/8/12/16 tetra-acetylated peptide 100 nM, compounds listed under IC50 range headings
T1 construct: 333-460 were cloned, expressed, and purified to homogeneity
In short: (§1)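 An AlphaScreen competition format was used with His-BRD4 BD1 or BD2 and biotin-H4 K5/8/12/16-acetyl peptide, each at matched final levels of 50 nM (BD1) or 100 nM (BD2). Incubation in HEPES/NaCl buffer with 0.1% BSA and 0.01% Triton X-100 ran ≥1 h before IC50 determination.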

[2] = target: T2, BRD4 Bromodomain 1 (BRD4 BD1) (Homo sapiens, UniProt O60885); assay: AlphaScreen binding assay, BRD4 BD1; details: His-tagged BRD4 BD1 50 nM, biotinylated H4 (1-21) K5/8/12/16 tetra-acetylated peptide 50 nM, compounds listed under IC50 range headings
T2 construct: 44-168 and BRD4 BD2
In short: as §1

[3] = tested on: acute myelocytic leukemia (AML) cell line MV4-11; assay: Oncology cell growth assay (3-day proliferation, CellTiter-Glo); assay type: cell-based; details: Homo sapiens, MV4-11, 72 h, MV4-11 cells, 3000 cells/well, compounds listed under IC50 range headings, read-out: MV411 IC50 (gIC50, inhibition of proliferation)
In short: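 A 3-day proliferation test used MV4-11 cells seeded at 3000 per well with eight compound concentrations (10 μM top, 3-fold dilution) at 37° C in 5% CO2. CellTiter-Glo luminescence defined viable cell signal. A four-parameter logistic curve against DMSO and background wells gave the gIC50.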

SMILES	IC50 [1] [nM]	IC50 [2] [nM]	IC50 [3] [nM]
CC(=O)N1c2ccc(-c3cnn(C4CCNCC4)c3)c(Oc3ccccc3C#N)c2CC[C@@H]1C [I-136, (S)-2-(1-acetyl-2-methyl-6-(1-(piperidin-4-yl)-1H-pyrazol-4-yl)-1,2,3,4-tetrahydroquinolin-5-yloxy)benzonitrile]	< 50	100 to 1000	< 500
COC(=O)N1c2ccc(-c3cnn(C4CC4)c3)c(OCC(=O)N3CCCCC3)c2CC[C@@H]1C [I-24, (S)-methyl 6-(1-cyclopropyl-1H-pyrazol-4-yl)-2-methyl-5-(2-oxo-2-(piperidin-1-yl)ethoxy)-3,4-dihydroquinoline-1(2H)-carboxylate]	< 50	100 to 1000	> 1000
CCCOc1c(-c2ccc(S(C)(=O)=O)cn2)ccc2c1CC[C@H](C)N2C(C)=O [I-114, (S)-1-(2-methyl-6-(5-(methylsulfonyl)pyridin-2-yl)-5-propoxy-3,4-dihydroquinolin-1(2H)-yl)ethanone]	50 to 500	1000 to 10000	> 1000
CC(=O)N1c2ccc(-c3cnn(C4CC4)c3)c(Oc3ccccc3Cl)c2CC[C@@H]1C [I-211, (S)-1-(5-(2-chlorophenoxy)-6-(1-cyclopropyl-1H-pyrazol-4-yl)-2-methyl-3,4-dihydroquinolin-1(2H)-yl)ethanone]	< 50	100 to 1000	< 500
CCN1CC(Oc2c(-c3cnn(C4CC4)c3)ccc3c2CC[C@H](C)N3C(=O)OC)C1 [I-251, (S)-methyl 6-(1-cyclopropyl-1H-pyrazol-4-yl)-5-(1-ethylazetidin-3-yloxy)-2-methyl-3,4-dihydroquinoline-1(2H)-carboxylate]	50 to 500	1000 to 10000	> 1000
CC(=O)N1c2ccc(-c3cnn(C4CC4)c3)c(Oc3ccc(C(N)=O)cc3)c2CC[C@@H]1C [I-209, (S)-4-(1-acetyl-6-(1-cyclopropyl-1H-pyrazol-4-yl)-2-methyl-1,2,3,4-tetrahydroquinolin-5-yloxy)benzamide]	50 to 500	100 to 1000	< 500
COC(=O)N1c2ccc(-c3cnn(C4CC4)c3)c(OCC(=O)N3CCC3)c2CC[C@@H]1C [I-23, (S)-methyl 5-(2-(azetidin-1-yl)-2-oxoethoxy)-6-(1-cyclopropyl-1H-pyrazol-4-yl)-2-methyl-3,4-dihydroquinoline-1(2H)-carboxylate]	50 to 500	100 to 1000	500 to 1000
C[C@H]1CCc2c(ccc(-c3cnn(C)c3)c2Oc2ccccc2)N1C(=O)C1CC1 [I-224, (S)-cyclopropyl(2-methyl-6-(1-methyl-1H-pyrazol-4-yl)-5-phenoxy-3,4-dihydroquinolin-1(2H)-yl)methanone]	< 50	100 to 1000	< 500
COC(=O)N1c2ccc(-c3cnn(C4CCNCC4)c3)c(Oc3ccccc3C#N)c2CC[C@@H]1C [I-137, methyl (S)-5-(2-cyanophenoxy)-2-methyl-6-(1-(piperidin-4-yl)-1H-pyrazol-4-yl)-3,4-dihydroquinoline-1(2H)-carboxylate]	< 50	100 to 1000	< 500
COC(=O)N1c2ccc(-c3cnn(C4CC4)c3)c(O[C@H](F)C(N)=O)c2CC[C@@H]1C [I-19, (S)-methyl 5-((R)-2-amino-1-fluoro-2-oxoethoxy)-6-(1-cyclopropyl-1H-pyrazol-4-yl)-2-methyl-3,4-dihydroquinoline-1(2H)-carboxylate]	50 to 500	1000 to 10000	> 1000
COC(=O)N1c2ccc(-c3cnn(C4CCOCC4)c3)c(OC3CCC3)c2CC[C@@H]1C [I-68, (S)-methyl 5-cyclobutoxy-2-methyl-6-(1-(tetrahydro-2H-pyran-4-yl)-1H-pyrazol-4-yl)-3,4-dihydroquinoline-1(2H)-carboxylate]	< 50	100 to 1000	< 500
CC(=O)N1c2ccc(-c3cnn(C4CC4)c3)c(OCC3CC3(F)F)c2CC[C@@H]1C (stereo partly drawn) [I-48, 1-((S)-6-(1-cyclopropyl-1H-pyrazol-4-yl)-5-((2,2-difluorocyclopropyl)methoxy)-2-methyl-3,4-dihydroquinolin-1(2H)-yl)ethanone]	< 50	< 100	< 500
CC(=O)N1c2ccc(-c3cnn(C4CCNCC4)c3)c(Oc3ccccc3)c2CC[C@@H]1C [I-201, (S)-1-(2-methyl-5-phenoxy-6-(1-(piperidin-4-yl)-1H-pyrazol-4-yl)-3,4-dihydroquinolin-1(2H)-yl)ethanone]	< 50	100 to 1000	< 500
CC(=O)N1c2ccc(-c3cnn(C4CC4)c3)c(Oc3ccccn3)c2CC[C@@H]1C [I-89, (S)-1-(6-(1-cyclopropyl-1H-pyrazol-4-yl)-2-methyl-5-(pyridin-2-yloxy)-3,4-dihydroquinolin-1(2H)-yl)ethanone]	50 to 500	100 to 1000	< 500
COC(=O)N1c2ccc(-c3cnn(C4CCNCC4)c3)c(Oc3ccc(Cl)cc3)c2CC[C@@H]1C [I-159, (S)-methyl 5-(4-chlorophenoxy)-2-methyl-6-(1-(piperidin-4-yl)-1H-pyrazol-4-yl)-3,4-dihydroquinoline-1(2H)-carboxylate]	< 50	100 to 1000	< 500
COC(=O)N1c2ccc(-c3cnn(C4CCN(C)C4)c3)c(OC3CCC3)c2CC[C@@H]1C (stereo partly drawn) [I-247, (2S)-methyl 5-cyclobutoxy-2-methyl-6-(1-(1-methylpyrrolidin-3-yl)-1H-pyrazol-4-yl)-3,4-dihydroquinoline-1 (211)-carboxylate]	50 to 500	100 to 1000	< 500
COC(=O)N1c2ccc(-c3cnn(C4CC4)c3)c(Oc3ccccc3Cl)c2CC[C@@H]1C [I-215, (S)-methyl 5-(2-chlorophenoxy)-6-(1-cyclopropyl-1H-pyrazol-4-yl)-2-methyl-3,4-dihydroquinoline-1(2H)-carboxylate]	50 to 500	1000 to 10000	500 to 1000

Further lines, results first:

IC50 [1] [nM]	IC50 [2] [nM]	IC50 [3] [nM]	SMILES
50 to 500	1000 to 10000	< 500	COC(=O)N1c2ccc(-c3cnn(CCO)c3)c(Oc3ncc(C4CC4)cn3)c2CC[C@@H]1C [I-572]
< 50	< 100	< 500	COC(=O)N1c2ccc(-c3cnn(C4CCNCC4)c3)c(OC3CCC3)c2CC[C@@H]1C [I-447]
50 to 500	1000 to 10000	500 to 1000	CC(=O)N1c2ccc(-c3cnn(C4CC4)c3)c(Oc3ncc4[nH]cnc4n3)c2CC[C@@H]1C [I-289, (S)-1-(5-(7H-purin-2-yloxy)-6-(1-cyclopropyl-1H-pyrazol-4-yl)-2-methyl-3,4-dihydroquinolin-1(2H)-yl)ethanone]
50 to 500	100 to 1000	< 500	CC(=O)N1c2ccc(-c3cnn(C4CC4)c3)c(Oc3ccc(C(=O)N(C)C)cc3)c2CC[C@@H]1C [I-595]
50 to 500	1000 to 10000	500 to 1000	COC(=O)N1c2ccc(-c3cnn(CCO)c3)c(Oc3ncc(C(F)(F)F)cn3)c2CC[C@@H]1C [I-580]
50 to 500	1000 to 10000	> 1000	COC(=O)N1c2ccc(-c3cnn(CCS(C)(=O)=O)c3)c(Oc3ncccc3C#N)c2CC[C@@H]1C [I-566]
50 to 500	100 to 1000	< 500	CC(=O)N1c2ccc(-c3cnn(CC(C)(C)O)c3)c(OCC3CCCC3)c2CC[C@@H]1C [I-425]
50 to 500	1000 to 10000	< 500	C[C@H]1CCc2c(ccc(-c3cnn(C4CCNCC4)c3)c2Oc2ccc(C(F)(F)F)cn2)N1C(=O)C1CC1 [I-541]
< 50	1000 to 10000	> 1000	COC(=O)N1c2ccc(-c3cnn(CC(C)(C)O)c3)c(Oc3ncccc3C(F)(F)F)c2CC[C@@H]1C [I-563]
≥ 500	1000 to 10000	> 1000	CC(=O)N1c2ccc(-c3ccc(OCCN(C)C)cc3)c(OCC(=O)N(C)C)c2CC[C@@H]1C [I-487]
< 50	100 to 1000	< 500	CC(=O)N1c2ccc(-c3cnn(C4CC4)c3)c(OCC(=O)N(C)C)c2CC[C@@H]1C [I-401]
< 50	< 100	< 500	CC(=O)N1c2ccc(-c3cnn(CCO)c3)c(OCC3CCCC3)c2CC[C@@H]1C [I-426]
50 to 500	1000 to 10000	500 to 1000	COC(=O)N1c2ccc(-c3cnn(C4CC4)c3)c(Oc3ncccc3C(F)(F)F)c2CC[C@@H]1C [I-565]
< 50	< 100	< 500	CC(=O)N1c2ccc(-c3cnn(C4CCNCC4)c3)c(OCC3CCCC3)c2CC[C@@H]1C [I-427]
< 50	100 to 1000	< 500	CCCOc1c(-c2cnn(C3CC3)c2)ccc2c1CC[C@H](C)N2C(C)=O [I-387]
< 50	100 to 1000	< 500	CC(=O)N1c2ccc(-c3cnn(C4CC4)c3)c(Oc3ccccc3)c2CC[C@@H]1C [I-594]
50 to 500	1000 to 10000	< 500	COC(=O)N1c2ccc(-c3cnn(C4CCNCC4)c3)c(Oc3nccc(C(F)(F)F)n3)c2CC[C@@H]1C [I-528]

Source: patent US10611750B2, “Tetrahydroquinoline compositions as bet bromodomain inhibitors” (FORMA Therapeutics, Inc., priority 2013, dated 2020)
